Results from patent US20250230138A1, “COMPOUNDS HAVING A T-STRUCTURE FORMED BY AT LEAST FOUR CYCLES FOR USE IN THE TREATMENT OF CANCER AND OTHER INDICATIONS” (TheRas, Inc., priority 2022, published 2025).
Where two headings read alike, the source gives them in different places.

Columns and labels:
pAKT in BT474 cells = experiment: Cell-based pAKT HTRF assay in BT474 cells; settings: BT474 cells, 4 hr incubation, read-out: pAKT inhibition IC50 in BT474 cells
In short: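 Cells grown in DMEM with 10% FBS were exposed to compounds for 4 hr in 0.25% DMSO, using a 9-point, 3-fold dilution series that starts at 3 μM. Lysates were incubated with d2 and Eu Cryptate antibodies for 4–24 h at room temperature, and HTRF was read at 615 nm emission.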

[1] = target: Cys242 in human PIK3CA (157-299) (Homo sapiens (Human), UniProt P42336); experiment: Covalent modification assay using MALDI-TOF MS; assay type: biochemical; settings: 4 h reaction time point
In short: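 PIK3CA (157-299), 3.33 or 1 μM in 20 mM HEPES, 150 mM NaCl, 2 mM MgCl2, pH 7.3, was incubated with compound at room temperature in the dark for 15 min, 30 min, 2 h or 4 h. Linear MALDI-TOF read-out; % modification = adduct peak height over summed heights of all protein species.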

[2] = 1 μM protein target, 1:5 protein to compound ratio (compounds 853-1279)
[3] = Homo sapiens, BT-474, Compounds 10-999
[4] = 3.33 μM protein target, 1:7.5 protein to compound ratio (compounds 1-852)

Sequence of Cys242 in human PIK3CA (157-299) (P42336 157-299): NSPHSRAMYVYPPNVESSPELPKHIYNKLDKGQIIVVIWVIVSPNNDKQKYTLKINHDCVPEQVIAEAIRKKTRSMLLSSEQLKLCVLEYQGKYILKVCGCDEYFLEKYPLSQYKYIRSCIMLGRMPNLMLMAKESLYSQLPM

Structure (SMILES) | IC50 (pAKT in BT474 cells; Compounds 10-999) | % of modification [1, 2] | % of modification [1, 4] | also measured
C=CC(=O)N1CCn2nc(-c3nc(N4CC5(CC(C(=O)NC)C5)C4)c4ccsc4c3-c3c(F)cc(F)cc3OCCOC)cc2[C@H]1C [Compound 1012, 2-((S)-6-((R)-5-acryloyl-4-methyl-4,5,6,7-tetrahydropyrazolo[1,5-a]pyrazin-2-yl)-7-(2,4-difluoro-6-(2-methoxyethoxy)phenyl)thieno[3,2-c]pyridin-4-yl)-N-methyl-2-azaspiro[3.3]heptane-6-carboxamide] | – | A (percent of modification of PIK3CA protein ≥75%) | – | IC50 (pAKT in BT474 cells; Homo sapiens, BT-474, Compounds 1000-1279): < 100 nM
C=CC(=O)N1CCc2ccc(-c3nc(-c4cn(C)cn4)c4ccsc4c3-c3c(F)cc(F)cc3OCCO)cc2C1 (single isomer, unassigned) [Compound 1000] | – | A (percent of modification of PIK3CA protein ≥75%) | – | IC50 (pAKT in BT474 cells; Compounds 1000-1279): < 100 nM
C=CC(=O)N1CCn2nc(-c3nc(-c4cnn(C)c4)c4ccsc4c3-c3ccc(F)cc3OCCOC)cc2C1 [Compound 194, 1-[2-[7-[4-fluoro-2-(2-methoxyethoxy)phenyl]-4-(1-methylpyrazol-4-yl)thieno[3,2-c]pyridin-6-yl]-6,7-dihydro-4H-pyrazolo[1,5-a]pyrazin-5-yl]prop-2-en-1-one] | – | – | A (percent of modification of PIK3CA protein ≥75%) | IC50 (pAKT in BT474 cells; [3]): < 100 nM
C=CC(=O)N1CCn2nc(-c3nc(-c4ccc5c(c4)CCNC5=O)c4ccsc4c3-c3ccc(F)cc3OC3CC3)cc2C1 [Compound 302] | < 100 nM | – | A (percent of modification of PIK3CA protein ≥75%) | –
C=CC(=O)N1CCn2nc(-c3nc(-c4ccc(CC(=O)N(C)C)cc4)c4ccsc4c3-c3c(F)cc(F)cc3OCCOC)cc2C1C (stereo not drawn) [Compound 1090] | – | A (percent of modification of PIK3CA protein ≥75%) | – | IC50 (pAKT in BT474 cells; Compounds 1000-1279): < 100 nM
C=CC(=O)N1CC(n2cc(-c3nc(C4CCN(C(C)=O)CC4)c4ccsc4c3-c3ccc(F)cc3OC)cn2)C1 [Compound 297] | 1000 to 3000 nM | – | B (50%<percent of modification <75%) | –
C=CC(=O)N1CCn2nc(-c3nc(-c4cc5cnn(C)c5cc4F)c4ccsc4c3-c3c(F)cc(F)cc3OCCO)cc2[C@H]1C [Compound 1162] | – | A (percent of modification of PIK3CA protein ≥75%) | – | IC50 (pAKT in BT474 cells; Compounds 1000-1279): < 100 nM
C=CC(=O)N1CC(n2cc(-c3nc(N4CCN5CCCC5C4)c4ccsc4c3-c3ccc(F)cc3OCCOC)cn2)C1 (stereo not drawn) [Compound 123] | 100 to 1000 nM | – | A (percent of modification of PIK3CA protein ≥75%) | –
C=CC(=O)N1CCn2nc(-c3nc(-c4ccc(C5CCCN5C)cc4)c4ccsc4c3-c3c(F)cc(F)cc3OCCOC)cc2C1C (stereo not drawn) [Compound 1237] | – | A (percent of modification of PIK3CA protein ≥75%) | – | IC50 (pAKT in BT474 cells; Compounds 1000-1279): < 100 nM
C=CC(=O)N1CCc2nc(-c3nc(-c4ccc(C(C)(C)N)cc4)c4ccsc4c3-c3c(F)cc(F)cc3OCCOC)sc2C1 [Compound 443] | 100 to 1000 nM | – | A (percent of modification of PIK3CA protein ≥75%) | –
C=CC(=O)N1CCn2nc(-c3nc(-c4ccc5c(c4)c(C)nn5C)c4ccsc4c3-c3c(F)cc(F)cc3OCCO)cc2C1C (stereo not drawn) [Compound 1101] | – | A (percent of modification of PIK3CA protein ≥75%) | – | IC50 (pAKT in BT474 cells; Compounds 1000-1279): < 100 nM
C=CC(=O)N1CC(n2cc(-c3nc(-c4ccc5c(c4)CCNC5)c4ccsc4c3-c3ccc(F)cc3OC(F)F)cn2)C1 [Compound 136] | 100 to 1000 nM | – | A (percent of modification of PIK3CA protein ≥75%) | –
C=CC(=O)N1CCc2c(nc(-c3nc(-c4ccc5c(c4)CCNC5)c4ccsc4c3-c3ccc(F)cc3OCCOC)n2C)C1 [Compound 99] | < 100 nM | – | A (percent of modification of PIK3CA protein ≥75%) | –
C=CC(=O)N1CCn2nc(-c3nc(-c4cnn(C)c4)c4ccsc4c3-c3ccc(F)cc3OC)cc2C1 [Compound 206, 1-[2-[7-(4-fluoro-2-methoxy-phenyl)-4-(1-methylpyrazol-4-yl)thieno[3,2-c]pyridin-6-yl]-6,7-dihydro-4H-pyrazolo[1,5-a]pyrazin-5-yl]prop-2-en-1-one] | – | – | A (percent of modification of PIK3CA protein ≥75%) | IC50 (pAKT in BT474 cells; [3]): < 100 nM
C=CC(=O)N1CC(n2cc(-c3nc(N4CC5(CCNCC5)CC4=O)c4ccsc4c3-c3ccc(F)cc3OCCOC)cn2)C1 [Compound 106] | > 3000 nM | – | C (25%≤percent of modification <50%) | –
C=CC(=O)N1CC(n2cc(-c3nc(-c4ccc5c(c4)CCNC5)c4ccsc4c3-c3ccc(F)cc3OC)cn2)C1 [Compound 82, 1-[3-[4-[7-(4-fluoro-2-methoxy-phenyl)-4-(1,2,3,4-tetrahydroisoquinolin-6-yl)thieno[3,2-c]pyridin-6-yl]pyrazol-1-yl]azetidin-1-yl]prop-2-en-1-one] | – | – | A (percent of modification of PIK3CA protein ≥75%) | IC50 (pAKT in BT474 cells; [3]): < 100 nM
C=CC(=O)N1CCn2nc(-c3nc(-c4ccc(C(=O)N(C)CCN(C)C)cc4)c4ccsc4c3-c3c(F)cc(F)cc3OCCOC)cc2C1C (stereo not drawn) [Compound 1206] | – | A (percent of modification of PIK3CA protein ≥75%) | – | IC50 (pAKT in BT474 cells; Compounds 1000-1279): < 100 nM
C=CC(=O)N1CCc2nc(-c3nc(-c4cccc(C(C)(C)O)c4)c4ccsc4c3-c3c(F)cc(F)cc3OCCOC)sc2C1 [Compound 429] | 100 to 1000 nM | – | A (percent of modification of PIK3CA protein ≥75%) | –
C=C(F)C(=O)N1CCn2nc(-c3nc(-c4ccc5c(c4)CNC5=O)c4ccsc4c3-c3c(F)cc(F)cc3OC(C)C)nc2C1 [Compound 315] | < 100 nM | – | A (percent of modification of PIK3CA protein ≥75%) | –
C=CC(=O)N1CCn2nc(-c3nc(-c4cnc(N5CCN(C)CC5)nc4)c4ccsc4c3-c3c(F)cc(F)cc3OCCOC)cc2[C@H]1C [Compound 951, 1-((R)-2-((S)-7-(2,4-difluoro-6-(2-methoxyethoxy)phenyl)-4-(2-(4-methylpiperazin-1-yl)pyrimidin-5-yl)thieno[3,2-c]pyridin-6-yl)-4-methyl-6,7-dihydropyrazolo[1,5-a]pyrazin-5(4H)-yl)prop-2-en-1-one] | – | A (percent of modification of PIK3CA protein ≥75%) | – | IC50 (pAKT in BT474 cells; [3]): < 100 nM
C=CC(=O)N1CC[C@H](n2cc(-c3nc(-c4ccc5c(c4)CCNC5)c4ccsc4c3-c3ccc(F)cc3OCCOC)ccc2=O)C1 [Compound 173] | 100 to 1000 nM | – | A (percent of modification of PIK3CA protein ≥75%) | –
C=CC(=O)N1CCC(n2cc(-c3nc(-c4ccc5c(c4)CNC(=O)C5)c4ccsc4c3-c3ccccc3)cn2)CC1 [Compound 75] | > 3000 nM | – | B (50%<percent of modification <75%) | –
C=C(F)C(=O)N1CCn2nc(-c3nc(-c4ccc5c(c4)CCNC5=O)c4ccsc4c3-c3ccc(F)cc3OCC)cc2C1 [Compound 304] | 100 to 1000 nM | – | B (50%<percent of modification <75%) | –

Further lines, with some results ahead:

IC50 (pAKT in BT474 cells; Compounds 10-999) | Structure (SMILES) | % of modification [1, 2] | % of modification [1, 4] | also measured
< 100 nM | C=CC(=O)N1Cc2cc(-c3nc(-c4ccc(N(C)C)nc4)c4ccsc4c3-c3c(F)cc(F)cc3OCCOC)nn2CC1C (stereo not drawn) [Compound 855] | A (percent of modification of PIK3CA protein ≥75%) | – | –
< 100 nM | C=CC(=O)N1CCn2nc(-c3nc(-c4ccc5c(c4)C(=O)NC5)c4ccsc4c3-c3c(F)cc(F)cc3OCC(C)O)cc2C1C (stereo not drawn) [Compound 879] | A (percent of modification of PIK3CA protein ≥75%) | – | –
< 100 nM | C=CC(=O)N1Cc2cc(-c3nc(-c4ccc5cnn(C)c5c4)c4ccsc4c3-c3c(F)cc(F)cc3OCC(C)O)nn2C(C)C1 (stereo not drawn) [Compound 680] | – | A (percent of modification of PIK3CA protein ≥75%) | –
< 100 nM | C=CC(=O)N1Cc2cc(-c3nc(-c4cnn(C)c4)c4ccsc4c3-c3c(F)cc(F)cc3OCCOC)nn2CC1C (stereo not drawn) [Compound 469] | – | A (percent of modification of PIK3CA protein ≥75%) | –
< 100 nM | C=CC(=O)N1Cc2cc(-c3nc(-c4ccc5c(c4)CCN(C)C5)c4ccsc4c3-c3c(F)cc(F)cc3OC3CC3)nn2C[C@H]1C [Compound 516] | – | A (percent of modification of PIK3CA protein ≥75%) | –
< 100 nM | C=CC(=O)N1CCn2nc(-c3nc(-c4ccc5c(c4)NC(=O)C5)c4ccsc4c3-c3c(F)cc(F)cc3OCCOC)cc2C1C (stereo not drawn) [Compound 989] | A (percent of modification of PIK3CA protein ≥75%) | – | –
< 100 nM | C=CC(=O)N1Cc2cc(-c3nc(-c4cnn(C)c4)c4ccsc4c3-c3c(F)cc(F)cc3OCCO)nn2CC1C (stereo not drawn) [Compound 534] | – | A (percent of modification of PIK3CA protein ≥75%) | –
< 100 nM | C=CC(=O)N1CCn2nc(-c3nc(-c4ccc5c(cnn5C)c4)c4ccsc4c3-c3c(F)cc(F)cc3OCC(C)O)cc2C1C (stereo not drawn) [Compound 767] | – | A (percent of modification of PIK3CA protein ≥75%) | –
< 100 nM | C=CC(=O)N1CCn2nc(-c3nc(-c4ccc(=O)n(C)c4)c4ccsc4c3-c3c(F)cc(F)cc3OCCO)cc2C1C (stereo not drawn) [Compound 872] | A (percent of modification of PIK3CA protein ≥75%) | – | –
< 100 nM | C=CC(=O)N1Cc2cc(-c3nc(-c4ccc(C5(N)COC5)cc4)c4ccsc4c3-c3c(F)cc(F)cc3OC(C)C)nn2[C@@H](C)C1 [Compound 511] | – | A (percent of modification of PIK3CA protein ≥75%) | –
